Source: patent US11312721B2 (priority 2015, dated 2022)
Entries after “also recorded” stand apart in the source; their conditions may differ. Read-outs that look alike come from different tables or passages of the source.

Key:
aged-impaired (AI) rats = test: Radial Arm Maze (RAM) behavioral task, spatial memory retention; type: in vivo, rat; conditions: 3 mg/kg ip, two-hour delay RAM
Method: The effects of methyl 3,5-diphenylpyridazine-4-carboxylate on the in vivo spatial memory retention of aged-impaired (AI) rats were assessed in a Radial Arm Maze (RAM) behavioral task using vehicle control and four different dosage levels of methyl 3,5-diphenylpyridazine-4-carboxylate ([…]). RAM behavioral tasks were performed on eight AI rats. All five treatment conditions (vehicle and four dosage levels) were tested on all eight rats.
The RAM apparatus used consisted of eight equidistantly-spaced arms. An elevated maze arm (7 cm width×75 cm length) projected from each facet of an octagonal center platform (30 cm diameter, 51.5 cm height). Clear side walls on the arms were 10 cm high and were angled at […] to form a trough. A food well (4 cm diameter, 2 cm deep) was located at the distal end of each arm. Froot Loops™ (Kellogg Company) were used as rewards. Blocks constructed of Plexiglas™ (30 cm height×12 cm width) could be positioned to prevent entry to any arm. Numerous extra maze cues surrounding the apparatus were also provided.
The AI rats were initially subjected to a pre-training test (Chappell et al. Neuropharmacology 37: 481-487, 1998). The pre-training test consisted of a habituation phase (4 days), a training phase on the standard win-shift task (18 days) and another training phase (14 days) in which a brief delay was imposed between presentation of a subset of arms designated by the experimenter (e.g., 5 arms available and 3 arms blocked) and completion of the eight-arm win-shift task (i.e., with all eight arms available).
In the habituation phase, rats were familiarized to the maze for an 8-minute session on four consecutive days. In each of these sessions, food rewards were scattered on the RAM, initially on the center platform and arms and then progressively confined to the arms. After this habituation phase, a standard training protocol was used, in which a food pellet was located at the end of each arm. Rats received one trial each day for 18 days. Each daily trial terminated when all eight food pellets had been obtained or when either 16 choices were made or 15 minutes had elapsed. After completion of this training phase, a second training phase was carried out in which the memory demand was increased by imposing a brief delay during the trial. At the beginning of each trial, three arms of the eight-arm maze were blocked. Rats were allowed to obtain food on the five arms to which access was permitted during this initial “information phase” of the trial. Rats were then removed from the maze for 60 seconds, during which time the barriers on the maze were removed, thus allowing access to all eight arms. Rats were then placed back onto the center platform and allowed to obtain the remaining food rewards during this “retention test” phase of the trial. […]

GABAA α5 receptor = target: T1, GABAA α5 receptor (Rattus norvegicus, UniProt P19969); test: GABAA α5 receptor occupancy in vivo with Ro 15-4513 tracer; design: species or system Long Evans rats
T1 construct: from tissue
T1 sequence (P19969 32-464 limits assumed): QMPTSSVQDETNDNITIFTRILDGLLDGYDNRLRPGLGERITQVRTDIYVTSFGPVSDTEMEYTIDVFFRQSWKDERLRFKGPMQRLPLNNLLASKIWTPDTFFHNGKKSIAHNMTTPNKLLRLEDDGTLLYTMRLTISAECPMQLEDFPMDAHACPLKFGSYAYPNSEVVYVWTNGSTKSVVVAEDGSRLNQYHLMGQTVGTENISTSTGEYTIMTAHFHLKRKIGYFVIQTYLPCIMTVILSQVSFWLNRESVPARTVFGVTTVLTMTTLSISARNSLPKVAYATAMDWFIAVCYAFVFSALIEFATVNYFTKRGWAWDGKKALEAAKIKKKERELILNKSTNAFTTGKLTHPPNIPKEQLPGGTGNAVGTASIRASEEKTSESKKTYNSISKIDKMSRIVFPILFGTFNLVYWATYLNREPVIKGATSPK
Source text: (§1) Food and water were available ad libitum.

[1] = type: in vivo, Long Evans rats; conditions: i.v.
Method: as §1
For plasma exposures, blood samples were centrifuged at 14000 rpm for 16 minutes. After centrifuging, 50 ul of supernatant (plasma) from each sample was added to 200 μl of acetonitrile plus 0.1% formic acid. […] Samples were sonicated for 5 minutes in an ultrasonic water bath, followed by centrifugation for 30 minutes, at 16000 RPM. 100 ul of supernatant was removed from each sample vial and placed in a new glass auto sample vial, followed by the addition of 300 μl of sterile water (pH 6.5).
Additional studies were conducted in aged Long-Evans rats in order to determine the exposures at the behaviorally relevant doses in the cognition studies. Exposure in young Long-Evans rats was also determined to bridge with the receptor occupancy studies that were conducted in young Long-Evans rats. Exposures in young and aged Long-Evans rats were relatively similar (Table 4, FIG. 4).

α5-containing GABAA R = α5-containing GABAA R (Homo sapiens, UniProt P18507+P31644); conditions: (EC20); cited from earlier work
α5-containing GABAA R, sequence (P31644 32-462): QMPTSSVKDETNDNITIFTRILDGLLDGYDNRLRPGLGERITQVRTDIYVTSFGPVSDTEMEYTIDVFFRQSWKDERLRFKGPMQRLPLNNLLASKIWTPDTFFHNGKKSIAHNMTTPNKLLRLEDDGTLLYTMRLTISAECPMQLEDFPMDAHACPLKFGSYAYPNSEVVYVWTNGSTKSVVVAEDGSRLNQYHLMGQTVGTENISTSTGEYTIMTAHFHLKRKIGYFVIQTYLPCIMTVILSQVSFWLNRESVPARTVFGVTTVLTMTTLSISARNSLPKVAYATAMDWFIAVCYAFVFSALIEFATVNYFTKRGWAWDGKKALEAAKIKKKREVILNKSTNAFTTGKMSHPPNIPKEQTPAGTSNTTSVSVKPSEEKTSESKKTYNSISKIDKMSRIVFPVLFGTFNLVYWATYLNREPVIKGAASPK
α5-containing GABAA R, sequence (P28472 26-473 partner): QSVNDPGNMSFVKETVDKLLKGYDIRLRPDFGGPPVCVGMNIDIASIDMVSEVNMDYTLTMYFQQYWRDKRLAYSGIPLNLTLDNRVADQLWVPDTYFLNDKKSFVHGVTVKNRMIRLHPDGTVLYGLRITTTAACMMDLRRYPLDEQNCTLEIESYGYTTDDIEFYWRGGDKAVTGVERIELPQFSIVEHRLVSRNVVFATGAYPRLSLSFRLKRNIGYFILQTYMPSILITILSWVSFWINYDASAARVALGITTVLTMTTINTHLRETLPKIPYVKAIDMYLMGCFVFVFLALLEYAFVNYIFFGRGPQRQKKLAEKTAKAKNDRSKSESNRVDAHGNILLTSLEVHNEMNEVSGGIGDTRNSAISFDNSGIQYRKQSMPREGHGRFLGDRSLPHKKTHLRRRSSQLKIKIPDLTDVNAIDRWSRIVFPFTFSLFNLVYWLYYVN
α5-containing GABAA R, sequence (P18507 40-475): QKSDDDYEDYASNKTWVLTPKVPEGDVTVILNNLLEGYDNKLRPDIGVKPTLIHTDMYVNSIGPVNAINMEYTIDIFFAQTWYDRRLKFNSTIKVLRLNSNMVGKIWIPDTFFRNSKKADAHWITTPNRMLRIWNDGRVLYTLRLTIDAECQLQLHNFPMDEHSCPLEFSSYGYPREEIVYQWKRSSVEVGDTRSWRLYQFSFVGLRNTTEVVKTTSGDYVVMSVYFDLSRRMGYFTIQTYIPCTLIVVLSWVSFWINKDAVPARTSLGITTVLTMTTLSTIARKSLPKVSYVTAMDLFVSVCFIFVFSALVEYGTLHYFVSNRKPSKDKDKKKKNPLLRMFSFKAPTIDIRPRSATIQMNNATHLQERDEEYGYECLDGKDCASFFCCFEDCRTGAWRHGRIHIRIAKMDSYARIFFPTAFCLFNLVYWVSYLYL

COC(=O)c1c(-c2ccccc2)cnnc1-c1ccccc1 [Methyl 3,5-diphenylpyridazine-4-carboxylate]
average no. of errors ± SEM in retention test (aged-impaired (AI) rats; AI rats): 1.31±0.40
memory performance relative to vehicle control (aged-impaired (AI) rats; t(7)=4.233, p=0.004): significantly improved memory performance
effect on Ro 15-4513 binding in hippocampus and cerebellum (GABAA α5 receptor; 0.01-10 mg/kg, i.v.): dose-dependently reduced Ro 15-4513 binding in hippocampus, without affecting cerebellum levels of Ro 15-4513; also recorded: blocked the binding of Ro154513 in the hippocampus but did not affect binding of Ro15413 in the cerebellum
RO required for cognitive efficacy in this model (GABAA α5 receptor; from exposure in aged rats at 3 mg/kg, i.p.): 30-40%
GABAA α5 receptors occupied at behaviorally active exposures (GABAA α5 receptor; hippocampus, exposures behaviorally active in aged-impaired rats): about 32%
ED50 of receptor occupancy, ratio method (GABAA α5 receptor; i.v., hippocampus/cerebellum ratio method): 1.8 mg/kg
receptor occupancy at 1 mg/kg (GABAA α5 receptor; rat, iv, 1 mg/kg, i.v., depending on method used to determine RO, read-out: receptor occupancy at an exposure of 180 ng/g in hippocampus): 32 to 39%
receptor occupancy at 10 mg/kg (GABAA α5 receptor; rat, iv, 10 mg/kg): > 90%
ED50 (GABAA α5 receptor; rat, iv, read-out: ED50 of receptor occupancy, using L-755,608 to define occupancy): 1.1 mg/kg
fold increase in hippocampal exposure ([1]; dose from 0.1 to 1 mg/kg): 12 fold
fold increase in hippocampal exposure ([1]; dose from 1 to 10 mg/kg): ~5 fold
fold increase in plasma exposure ([1]; dose from 1 to 10 mg/kg): 12 fold
α5 in vitro efficacy (α5-containing GABAA R): +27
